How the values were obtained:
[1] = tested on: Musca domestica; test: Housefly contact test, mortality after 48 hours; assay type: in vivo, Housefly Musca domestica; conditions: μg of the test compound per 25 female flies
Protocol: (§1) The compounds in Table I above were tested for insecticidal activity using the following testing procedures. LC50 values, based on the results of these tests and calculated according to dosage-mortality curves, are expressed in Table II.
The test compound was diluted in acetone and aliquots pipetted onto the bottom of aluminum dishes. To ensure even spreading of the chemical on the bottom of the dishes, 1 ml of acetone containing 0.01% peanut oil was also added to each dish. After all solvents had evaporated, the dishes were placed in circular cardboard cages containing 25 female houseflies, 1-2 days old. The cages were covered on the bottom with cellophane and on the top with tulle netting, and each contained a sugar-water saturated cotton plug for maintenance of the flies. Mortality was recorded after 48 hours. Test levels ranged from 100 μg/25 female houseflies downward. The LC-50 value is expressed below in Table II under the heading "HF", in terms of μg of the test compound per 25 female flies.

[2] = tested on: Aphis fabae; test: Black bean aphid spray test on nasturtium plants, mortality after 48 hours; assay type: in vivo, Black Bean Aphid Aphis fabae (Scop.); conditions: mixed ages, percent of test compound in sprayed solution
Protocol: as §1
Black Bean Aphid Aphis fabae (Scop.)
Nasturtium plants (Tropaeolum sp.) approximately 5 cm tall, were transplanted into sandy loam soil in small cups and infested with 25-50 black bean aphids of mixed ages. Twenty-four hours later they were sprayed to the point of runoff with 50--50 acetone-water solutions of the test compound. Treated plants were held in the greenhouse and mortality was recorded after 48 hours. Test concentrations ranged from 0.05% downward. The LC-50 value is expressed below in Table II under the heading "BA" in terms of percent of the test compound in the sprayed solution.

[3] = tested on: Tetranychus urticae; test: Two-spotted mite acaricidal test on pinto bean plants; assay type: in vivo, two-spotted mite Tetranychus urticae (Koch); conditions: percent concentration in solution, 5-7 days; for LC50 2-SM A: adults; for LC50 2-SM E: eggs
Source text: Acaricidal Evaluation Test
The two-spotted mite (2SM) [Tetranychus urticae (Koch)]was employed in tests for miticides. The test procedure was as follows:
Pinto bean plants (Phaseolus sp.) approximately 10 cm tall, were transplanted into sandy loam soil in small cups and thoroughly infested with two-spotted mites of mixed ages and sexes. Twenty-four hours later the infested plants were inverted and dipped for 2-3 seconds in 50--50 acetone-water solutions of the test compound. Treated plants were held in the greenhouse, and 5-7 days later mortality was determined for both adult mites and the nymphs hatching from eggs which were on the plants at the time of treatment. Test concentrations ranged from 0.05% downward. The LC-50 value is expressed below in Table II under the headings "2SM-A" (i.e., adults) and "2SM-E" (i.e. eggs) in terms of percent concentration of the test compound in the solution.

[4] = tested on: Heliothis virescens; test: Tobacco budworm egg dip test; assay type: in vivo, Tobacco Budworm Heliothis virescens (Fabricius); conditions: 2-day old eggs (TBW-E), percent of test compound in solution
Protocol: as §1
Tobacco Budworm Heliothis virescens (Fabricius)
Eggs: Paper towel patches of 2-day old eggs of the tobacco budworm were dipped in acetone solutions of the test compound and placed in petri dishes containing a portion of larval rearing medium. Treated eggs were maintained at 78° F. and mortality was recorded after all control eggs had hatched and the young larvae were feeding on the media. Test concentrations ranged from 0.1% downward. The LC-50 value is expressed below in Table II under the heading "TBW-E" in terms of percent of the test compound in the solution.

[5] = tested on: Trichoplusia ni; test: Cabbage looper larvae leaf-dip test; assay type: in vivo, Cabbage Looper Trichoplusia ni (Hubner); conditions: second instar larvae, percent of test compound in solution, 3-5 days
Protocol: as §1
Cabbage Looper Trichoplusia ni (Hubner)
The test compound was diluted in a 50--50 acetone-water solution Cotyledons of hyzini squash (Calabacita abobrinha), approximately 1×1.5 inches, were immersed in the test solutions for 2-3 seconds and placed on a wire screen to dry. The dried leaves were p1aced in petri dishes containing a moistened piece of filter paper and infested with 5 secondinstar cabbage looper larvae. The dishes were placed in a high humidity chamber. Mortality of the larvae was recorded 3-5 days later. Test concentrations ranged from 0.1% downward. The LC-50 value is expressed below in Table II under the heading "CL" in terms of percent of the test compound in solution.

[6] = tested on: Diabrotica undecimpunctata undecimpunctata; test: Western spotted cucumber beetle larvae soil test; assay type: in vivo; conditions: Diabrotica eggs/larvae; ppm of the test compound in the soil
Protocol: as §1
Western Spotted Cucumber Beetle Larvae Diabrotica undecimpunctata undecimpunctata (Mannherheim)
Ten grams of moist potting soil was placed in a plastic cup. The test compound was dissolved in acetone. A 0.05 ml aliquot of the test sample, diluted to the desired concentration, was added to the soil. The cup was capped and the soil was mixed on a vortex mixer for approximately 15 seconds. An indentation was made on the surface of the soil and approximately 50 Diabrotica eggs were added. The eggs were covered with soil and maintained at room temperature (approximately 70° F. or 21° C.). Four days later a section of Romaine lettuce (Latuca sativa) leaf was placed in the treated cups. One week later the cups were examined for live larvae. Test concentrations ranged from 25 ppm downward. The LC-50 value is expressed below in Table II under the heading "Diabrotica" in terms of ppm of the test compound in the soil.

Compound | LC50 HF [1] [µg] | LC50 BA [2] [%] | LC50 2-SM A [3] [%] | LC50 2-SM E [3] [%] | LC50 TBW [4] [%] | LC50 CL [5] [%] | LC50 Diabrotica [6] [ppm]
COc1ccc(N=C(OCc2cccc(Oc3ccccc3)c2)C(C)C)cn1 [Compound 3] | 7 | 0.003 | > 0.05 | > 0.05 | > 0.1 | 0.0075 | > 25
CC(C)C(=Nc1ccc(C(F)(F)F)cn1)OCc1cccc(Oc2ccccc2)c1 [Compound 4] | 42 | 0.05 | > 0.05 | > 0.05 | > 0.1 | 0.008 | > 25
CC(C)C(=Nc1ccc(F)nc1)OCc1cccc(Oc2ccccc2)c1 [Compound 5] | 8 | 0.003 | > 0.05 | > 0.05 | 0.09 | 0.008 | > 25
CC(C)C(=Nc1c(F)c(F)nc(F)c1F)OCc1cccc(Oc2ccccc2)c1 [Compound 6] | > 100 | > 0.05 | > 0.05 | > 0.05 | > 0.1 | 0.004 | > 25
Clc1ccc(N=C(OCc2cccc(Oc3ccccc3)c2)C2CC2)cn1 [Compound 7] | > 100 | > 0.05 | > 0.05 | > 0.05 | > 0.1 | 0.022 | > 25
Cc1cc(N=C(OCc2cccc(Oc3ccccc3)c2)C(C)C)no1 [Compound 8] | > 100 | > 0.05 | > 0.05 | > 0.05 | > 0.1 | 0.1 | > 25
CC(C)(Cl)C(=Nc1nnc(C(F)(F)F)s1)OCc1cccc(Oc2ccccc2)c1 [Compound 9] | > 100 | > 0.05 | > 0.05 | > 0.05 | > 0.1 | 0.035 | > 25
COC(=O)c1ccc(N=C(OCc2cccc(Oc3ccccc3)c2)C(C)C)o1 [Compound 14] | > 100 | > 0.05 | > 0.05 | > 0.05 | > 0.1 | 0.01 | > 25
COc1ccc(N=C(OCc2cccc(Oc3ccccc3)c2)C2CC2)cn1 [Compound 15] | 58 | > 0.05 | > 0.05 | > 0.05 | > 0.1 | 0.05 | > 25
CC(C)C(=Nc1ccc2nc(-c3ccccc3)oc2c1)OCc1cccc(Oc2ccccc2)c1 [Compound 28] | > 100 | > 0.05 | > 0.05 | > 0.05 | > 0.1 | 0.04 | > 25
CC(C)C(=Nc1ccc(Cl)nc1)SCc1cccc(Oc2ccc(F)cc2)c1 [Compound 29] | > 100 | > 0.05 | > 0.05 | > 0.05 | > 0.1 | 0.025 | > 25
CC(C)C(=Nc1ccc(Cl)nc1)OCc1cccc(Oc2ccc(Cl)cc2)c1 [Compound 30] | 15 | > 0.05 | > 0.05 | > 0.05 | 0.1 | 0.0007 | > 25
CC(C)C(=Nc1cncc(C(F)(F)F)c1)OCc1cccc(Oc2ccccc2)c1 [Compound 33] | 5 | > 0.05 | > 0.05 | > 0.05 | 0.075 | 0.0035 | > 25
CC(C)C(=Nc1cncc(C(F)(F)F)c1)OCc1ccc(F)c(Oc2ccc(Cl)cc2)c1 [Compound 37] | 40 | > 0.05 | > 0.05 | > 0.05 | > 0.1 | > 0.1 | > 25
CSc1ccc(N=C(OCc2cccc(Oc3ccccc3)c2)C(C)C)cn1 [Compound 38] | < 100 | 0.005 | > 0.05 | > 0.05 | > 0.1 | > 0.1 | > 25
CC(C)C(=Nc1ccc(OCC(F)(F)F)nc1)OCc1cccc(Oc2ccc(Cl)cc2)c1 [Compound 39] | > 100 | 0.001 | 0.006 | 0.006 | 0.02 | > 0.1 | > 25
CC(C)C(=Nc1ccc(OCC(F)(F)F)nc1)OCc1cccc(Oc2ccccc2)c1 [Compound 40] | < 100 | 0.0003 | 0.006 | 0.006 | 0.045 | 0.00029 | > 25
CC(C)C(=Nc1ccc(OCC(F)(F)F)nc1)OCc1ccc(F)c(Oc2ccccc2)c1 [Compound 42] | < 100 | 0.0004 | 0.006 | 0.006 | 0.017 | 0.000075 | > 25
CC(C)C(=Nc1ccc(OCC(F)(F)F)nc1)OCc1cccc(Oc2ccc(F)cc2)c1 [Compound 43] | > 100 | 0.0003 | 0.006 | 0.006 | 0.02 | 0.00015 | > 25
CC(C)C(=Nc1ccc(OCC(F)(F)F)nc1)OCc1ccc(F)c(Oc2ccc(Cl)cc2)c1 [Compound 44] | > 100 | 0.0003 | 0.001 | 0.001 | 0.01 | 0.00017 | > 25
CC(C)C(=Nc1ccc(OCC(F)(F)F)nc1)OCc1cccc(Oc2ccccc2)n1 [Compound 45] | < 100 | 0.001 | 0.03 | 0.03 | > 0.1 | 0.00075 | > 25
